The numbers were not newly measured in patent publication US20250235429A1, “TREATMENT OF DISEASES VIA ADMINISTRATION OF BUNTANETAP AND AN ANTIDIABETIC AGENT” (ANNOVIS BIO, INC., priority 2024, published 2025), which cites them from elsewhere.

Data set [1] concerns APP in SH-SY-5Y human neuroblastoma cells. Particulars: cited from earlier work.
The subject of another data set is aSYN. Particulars: transgenic Parkinson's animals, in the brain and in the gut; cited from earlier work.

For the compound `CN1CC[C@]2(C)c3cc(OC(=O)Nc4ccccc4)ccc3N(C)C12` (stereo partly drawn) [Buntanetap, (3aR)-1,3a,8-trimethyl-1,2,3,3a,8,8a-hexahydropyrrolo[2,3-b]indol-5-yl phenylcarbamate], the “levels of APP in vitro” value in data set [1] is given as “lowers”. Moreover, the aSYN in vivo entry with aSYN is given as “lowers”.
